Values of other authors as cited in patent US20200221707A1, “Sanitizing Compositions and Methods for Making and Using Same” (priority 2017, published 2020).

How the values were obtained:
most bacteria = settings: in <30 seconds
[1] = tested on: Gram-negative bacteria and fungi

| SMILES | bacteria destroyed (most bacteria) | amount active against Gram-positive bacteria (Gram-positive bacteria) | amount effective against Gram-negative bacteria and fungi [1] |
| --- | --- | --- | --- |
| CC(C)O [Isopropyl alcohol] | > 99.99% |  |  |
| [H]/N=C(\N/C(=N/[H])NCCCCCCNC(=N)NC(=N)Nc1ccc(Cl)cc1)Nc1ccc(Cl)cc1 [Chlorhexidine] |  | at least 1 ppm | 10-80 ppm |
